This note sets out measurements from patent US9988373B2, “Nitrogen-containing six-membered cyclic derivatives and pharmaceutical composition comprising the same” (SHIONOGI & CO., LTD., priority 2013, dated 2018).

One assay deals with T1, human P2X7 receptor (Homo sapiens, UniProt Q99572, R270H).
T1 construct: expressed in transfected cells
T1 sequence (Q99572 1-595 R270H): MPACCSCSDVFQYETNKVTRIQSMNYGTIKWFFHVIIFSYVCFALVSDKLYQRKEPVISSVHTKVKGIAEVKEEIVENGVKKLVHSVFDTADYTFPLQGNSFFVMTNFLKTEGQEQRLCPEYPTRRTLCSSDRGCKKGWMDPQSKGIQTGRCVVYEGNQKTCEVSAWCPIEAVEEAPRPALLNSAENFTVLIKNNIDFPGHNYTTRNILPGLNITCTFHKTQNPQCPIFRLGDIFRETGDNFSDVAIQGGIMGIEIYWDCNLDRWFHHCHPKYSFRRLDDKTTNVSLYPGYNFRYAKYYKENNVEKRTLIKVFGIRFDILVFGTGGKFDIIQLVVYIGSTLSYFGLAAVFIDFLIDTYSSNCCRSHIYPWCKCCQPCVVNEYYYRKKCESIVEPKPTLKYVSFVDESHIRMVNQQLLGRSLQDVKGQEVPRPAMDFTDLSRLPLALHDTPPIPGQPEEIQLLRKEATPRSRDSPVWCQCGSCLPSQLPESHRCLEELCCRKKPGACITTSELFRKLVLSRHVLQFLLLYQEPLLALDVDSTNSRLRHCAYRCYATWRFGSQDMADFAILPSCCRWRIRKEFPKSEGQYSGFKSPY
As to the kind of experiment: Evaluation of a human P2X7 receptor inhibitory activity (Yo-Pro uptake, BzATP stimulation, FLIPR TETRA). It counts as cell-based. The settings on record: antagonistic activity for the human P2X7 receptor, 1321N1 cell transfected with the human P2X7 receptor gene, Yo-Pro fluorescence. As to the method: Test Example 1 Evaluation of a Human P2X7 Receptor Inhibitory Activity
Stably expressing cell line (1321N1 cell transfected with the human P2X7 receptor gene (GenBank accession number NM_002562.5 including T606C and G952A SNP)) was used. The cells were seeded in a 384-well microtiter plate at a concentration of 8000 cells/well and cultured in the medium (10% fetal bovine serum, 25 mM HEPES, 1% penicillin and streptomycin in DMEM) for one day at 37° C. under 5% carbon dioxide atmosphere. After replacing with 20 μL of the HBSS buffer (20 mM HEPES. 55.6 mM D-glucose, 1×HBSS(−), pH 7.4-7.5), 15 μL of 17.3 μM Yo-Pro solution in the HBSS buffer was added. The plate was placed in high-throughput cellular screening system FLIPR TETRA (Molecullar Devices, LLC.) and 15 μL of 130 μM BzATP solution in the HBSS buffer was added. Measurement of fluorescence intensity by FLIPR TETRA was started. After eight minutes, 15 μL of DMSO solutions containing different concentrations of the compound of the present invention as prepared by dilution with the HBSS buffer were dispensed to each well through the built-in automatic dispenser, and the measurement of fluorescence intensity was continued for 20 minutes. The maximum fluorescence intensity without the compound of the present invention is calculated as 0% inhibition and the maximum fluorescence intensity when the reference compound was added is calculated as 100% inhibition. Changing values of fluorescence intensity by the compound of the present invention were calculated by difference between maximum and minimum fluorescence intensity for 20 minutes. Inhibition ratios (%) were calculated from the following equation:
[formula] IC50 was calculated using logistic approximation.
A word on the IC50: it is the concentration that gives 50% inhibition. `COC(=O)Nc1cn(Cc2ccccc2)c(-c2cccc(C(F)(F)F)c2Cl)nc1=O` [II-053] registered an IC50 of 71 nM.

`COc1cn(Cc2cccc3ccccc23)c(-c2cccc(C(F)(F)F)c2Cl)nc1=O` [II-055] returned an IC50 of 20 nM.

With `COc1cn(Cc2ccccc2)c(-c2cccc(Cl)c2Cl)nc1=O` [II-056], the concentration for half-maximal inhibition (IC50) was 130 nM.

The compound `COc1cn(Cc2ccccc2)c(C2=CCC3(CC2)CC3)nc1=O` [II-073] showed an IC50 of 630 nM.

The compound `O=c1ccn(CC2CCCCC2)c(-c2cccc(C(F)(F)F)c2Cl)n1` [II-077] returned an IC50 of 610 nM.

For `COc1cn(Cc2ccccc2)c(-c2ccc(Cl)cc2Cl)nc1=O` [II-082], the IC50 was 190 nM.

Still in this assay, the particulars now being: antagonistic activity for the human P2X7 receptor, 1321N1 cell transfected with the human P2X7 receptor gene, Yo-Pro fluorescence, class symbols.
In turn, `N#Cc1cn(Cc2ccc(F)cc2)c(-c2cccc(C(F)(F)F)c2Cl)nc1=O` [II-049] gave an IC50 of 50 to 100 nM.

`N#CCn1cc(-c2ccccc2)c(=O)nc1-c1cccc(C(F)(F)F)c1Cl` [II-050]: the IC50 fell in the range of 100 to 500 nM.

Regarding `CN(C)c1cn(Cc2ccccc2)c(-c2cccc(C(F)(F)F)c2Cl)nc1=O` [II-051], the IC50 is 100 to 500 nM.

Turning to `COc1cn(Cc2cccc3ncccc23)c(-c2cccc(C(F)(F)F)c2Cl)nc1=O` [II-052], the IC50 was less than 50 nM.

Compound `O=C(Nc1cn(Cc2ccccc2)c(-c2cccc(C(F)(F)F)c2Cl)nc1=O)OCC(F)(F)F` [II-054] yielded an IC50 of 100 to 500 nM.

As for `COc1cn(Cc2ccccc2C)c(C2=CCCCC2)nc1=O` [II-057], the IC50 was in the range of 1000 to 10000 nM.

`COc1cn(Cc2ccccc2C)c(-c2ccccc2)nc1=O` [II-058] gave an IC50 of 1000 to 10000 nM.

`COc1cn(Cc2ccccc2C)c(-c2cccc(Cl)c2)nc1=O` [II-059]: the IC50 is 1000 to 10000 nM.

For the compound `COc1cn(Cc2ccccc2C)c(-c2ccc(Cl)cc2)nc1=O` [II-060], the IC50 is 1000 to 10000 nM.

Compound `COc1cn(Cc2ccccc2C)c(-c2ccccc2F)nc1=O` [II-061] came in with an IC50 of 1000 to 10000 nM.

`COc1cn(Cc2ccccc2C)c(-c2cccc(F)c2)nc1=O` [II-062] gave an IC50 of 1000 to 10000 nM.

Compound `COc1cn(Cc2ccccc2C)c(-c2ccc(F)cc2)nc1=O` [II-063] registered an IC50 of 1000 to 10000 nM.

For `COc1cn(Cc2ccccc2C)c(-c2ccccc2C(F)(F)F)nc1=O` [II-064], the IC50 fell in the range of 500 to 1000 nM.

Compound `COc1cn(Cc2ccccc2C)c(-c2cccc(C(F)(F)F)c2)nc1=O` [II-065] came in with an IC50 of 100 to 500 nM.

`COc1cn(Cc2ccccc2C)c(-c2ccc(C(F)(F)F)cc2)nc1=O` [II-066] had an IC50 of 1000 to 10000 nM.

`COc1cn(Cc2ccccc2C)c(-c2ccc(-c3ccccc3)cc2)nc1=O` [II-067]: the IC50 lay in the range of 1000 to 10000 nM.

The compound `COc1cn(Cc2ccccc2C)c(-c2cccc(-c3ccccc3)c2)nc1=O` [II-068] returned an IC50 of 1000 to 10000 nM.

Compound `COc1cn(Cc2ccccc2)c(C2=CCCCCC2)nc1=O` [II-069] returned an IC50 of 1000 to 10000 nM.

The compound `COc1cn(Cc2ccccc2)c(-c2cnn(Cc3ccccc3)c2)nc1=O` [II-070] gave an IC50 of 1000 to 10000 nM.

`COc1cn(Cc2ccccc2)c(C2=C[C@H]3CC[C@@H]2C3)nc1=O` [II-071] gave an IC50 of 1000 to 10000 nM.

In turn, `COc1cn(Cc2ccccc2)c(C2=CCSCC2)nc1=O` [II-072] came in with an IC50 of 1000 to 10000 nM.

On to `COc1cn(Cc2ccccc2C)c(-c2ccccc2Cl)nc1=O` [II-074], for which the IC50 lay within 500 to 1000 nM.

In the case of `O=c1ccn(CCc2ccccc2)c(-c2cccc(C(F)(F)F)c2Cl)n1` [II-076], the IC50 was 1000 to 10000 nM.

The compound `COc1cn(Cc2ccccc2)c(-c2cccc(F)c2F)nc1=O` [II-078] yielded an IC50 of 500 to 1000 nM.

Compound `COc1cccc(-c2nc(=O)c(OC)cn2Cc2ccccc2)c1Cl` [II-079] displayed an IC50 of 1000 to 10000 nM.

Regarding `O=c1nc(-c2cccc(C(F)(F)F)c2Cl)n(Cc2ccccc2)cc1Oc1ccccc1` [II-080], the IC50 was in the range of 50 to 100 nM.

`COc1cn(Cc2ccccc2)c(-c2cccc(Cl)c2C)nc1=O` [II-081] yielded an IC50 of 500 to 1000 nM.

The compound `COc1cn(Cc2ccccc2)c(-c2cccc(Cl)c2C(F)(F)F)nc1=O` [II-083] had an IC50 of 50 to 100 nM.

Regarding `COc1cn(Cc2ccccc2)c(-c2ccc(Cl)c(Cl)c2)nc1=O` [II-084], the IC50 fell in the range of 100 to 500 nM.
